Measurements taken from the CheMixHub viscosity set.
Values joined by “and” are separate entries in the source; they are usually repeats but may differ in a detail not shown here. Equal entries are not always repeated.

Assay: xn = mol fraction of the nth substance listed

C=C(C)C(=O)OC + CCCCOCCO
viscosity [mPa·s], 101.3 kPa
Settings | 298.15 K | 308.15 K
x1 = 0.0589 | 2.45 | 1.998
x1 = 0.1467 | 2.063 | 1.704
x1 = 0.2571 | 1.682 | 1.408
x1 = 0.3556 | 1.416 | 1.196
x1 = 0.4555 | 1.201 | 1.021
x1 = 0.5016 | 1.117 | 0.952
x1 = 0.5559 | 1.028 | 0.878
x1 = 0.6734 | 0.868 | 0.742
x1 = 0.7556 | 0.778 | 0.664
x1 = 0.857 | 0.686 | 0.583
x1 = 0.9547 | 0.613 | 0.518

CCCCOP(=O)(O)OCCCC + CCCN
297 K, 101 kPa
Settings | viscosity [mPa·s]
x2 = 0.15 | 60
x2 = 0.3 | 100
x2 = 0.48 | 1370
x2 = 0.5 | 1700
x2 = 0.66 | 170

CCCCCCCCCCCCCCCCCCO + CCCO
298.15 K, 101 kPa
Settings | viscosity [mPa·s]
x1 = 0.0016 | 2.071
x1 = 0.0028 | 2.011
x1 = 0.0106 | 2.164
x1 = 0.0212 | 2.332

C[N+](C)(C)CCC[N+]1(C)CCCCC1.N#C[N-]C#N.N#C[N-]C#N + CCO
viscosity [mPa·s], 100 kPa
Settings | 293.15 K | 303.15 K | 323.15 K
x1 = 0.5002 | 280.5 | – | 70.55
x1 = 0.7998 | – | 828.4 | –

CCCC[P+](C)(CCCC)CCCC.COS(=O)(=O)[O-] + CN1CCCC1=O
101 kPa
Settings | viscosity [mPa·s]
293.15 K, x1 = 0.2318 | 67.31
293.15 K, x1 = 0.6014 | 285.4
293.15 K, x1 = 0.7129 | 437.9
293.15 K, x1 = 0.8086 | 533
293.15 K, x1 = 0.9022 | 633.1
293.15 K, x1 = 0.9468 | 676.8
298.15 K, x1 = 0.2318 | 38.93
298.15 K, x1 = 0.2971 | 50.57
298.15 K, x1 = 0.3764 | 80.09
298.15 K, x1 = 0.7129 | 294.9
298.15 K, x1 = 0.8086 | 370.8
298.15 K, x1 = 0.8515 | 411.3
298.15 K, x1 = 0.9022 | 451.1
298.15 K, x1 = 0.9468 | 487
303.15 K, x1 = 0.0914 | 4.938
303.15 K, x1 = 0.1311 | 7.781
303.15 K, x1 = 0.2971 | 25.25
303.15 K, x1 = 0.3764 | 40.12
303.15 K, x1 = 0.4752 | 65.25
303.15 K, x1 = 0.8086 | 262.4
303.15 K, x1 = 0.8515 | 295.9
303.15 K, x1 = 0.9022 | 328.3
303.15 K, x1 = 0.9468 | 353.5
308.15 K, x1 = 0.0914 | 2.514
308.15 K, x1 = 0.1311 | 3.429
308.15 K, x1 = 0.1773 | 6.412
308.15 K, x1 = 0.2318 | 8.924
308.15 K, x1 = 0.4752 | 30.51
308.15 K, x1 = 0.6014 | 66.52
308.15 K, x1 = 0.9468 | 268.4
313.15 K, x1 = 0.1311 | 3.214
313.15 K, x1 = 0.1773 | 4.514
313.15 K, x1 = 0.2318 | 6.789
313.15 K, x1 = 0.7129 | 95.25
318.15 K, x1 = 0.1311 | 4.512
318.15 K, x1 = 0.1773 | 6.412
318.15 K, x1 = 0.2318 | 7.124
318.15 K, x1 = 0.6014 | 31.78
318.15 K, x1 = 0.7129 | 72.62
323.15 K, x1 = 0.0914 | 2.515
323.15 K, x1 = 0.1311 | 3.845
323.15 K, x1 = 0.1773 | 5.672
323.15 K, x1 = 0.7129 | 59.09
323.15 K, x1 = 0.8086 | 88.33

CCCC[P+](C)(CCCC)CCCC.COS(=O)(=O)[O-] + CN(C)C=O
100 kPa
Settings | viscosity [mPa·s]
293.15 K, x1 = 0.4272 | 67.15
303.15 K, x1 = 0.8837 | 286.5
318.15 K, x1 = 0.6717 | 59.15
323.15 K, x1 = 0.7768 | 84.15

C=C(C)C(=O)OC + CO
viscosity [mPa·s], 101 kPa
Settings | x2 = 0.1152 | x2 = 0.2092 | x2 = 0.3024 | x2 = 0.4008 | x2 = 0.5011 | x2 = 0.6041 | x2 = 0.7013 | x2 = 0.8003 | x2 = 0.9033
293.15 K | 0.5752 | 0.5665 | 0.5622 | 0.5592 | 0.5546 | 0.5576 | 0.5612 | 0.5709 | 0.5792
298.15 K | 0.5416 | 0.5329 | 0.5294 | 0.5266 | 0.5222 | 0.5232 | 0.5269 | 0.5357 | 0.5425
303.15 K | 0.5126 | 0.5046 | 0.5012 | 0.4973 | 0.4928 | 0.4944 | 0.4965 | 0.5036 | 0.5088
308.15 K | 0.4841 | 0.4783 | 0.4739 | 0.4705 | 0.4665 | 0.4673 | 0.4689 | 0.4748 | 0.4792
313.15 K | 0.4611 | 0.4552 | 0.4511 | 0.4474 | 0.4428 | 0.4435 | 0.4441 | 0.4493 | 0.4529
318.15 K | 0.4391 | 0.4335 | 0.4297 | 0.4261 | 0.4212 | 0.4228 | 0.4243 | 0.4259 | 0.4285
323.15 K | 0.4195 | 0.4138 | 0.4101 | 0.4063 | 0.4022 | 0.4031 | 0.4043 | 0.4057 | 0.4065

C[N+](C)(C)CCC[N+]1(C)CCCCC1.N#C[N-]C#N.N#C[N-]C#N + CO
viscosity [mPa·s], 100 kPa
Settings | 303.15 K | 313.15 K | 323.15 K
x1 = 0.0999 | – | – | 2.735
x1 = 0.7998 | 918.9 | 488.5 | –

C=C(C)C(=O)OC + COCCO
viscosity [mPa·s], 101.3 kPa
Settings | 298.15 K | 308.15 K
x1 = 0.0557 | 1.449 | 1.149
x1 = 0.1541 | 1.237 | 1.01
x1 = 0.2554 | 1.068 | 0.892
x1 = 0.3538 | 0.941 | 0.799
x1 = 0.4561 | 0.836 | 0.72
x1 = 0.4992 | 0.799 | 0.691
x1 = 0.553 | 0.759 | 0.658
x1 = 0.6543 | 0.696 | 0.606
x1 = 0.7542 | 0.65 | 0.564
x1 = 0.8539 | 0.616 | 0.529
x1 = 0.9543 | 0.592 | 0.502

O=C(c1ccccc1)N(O)c1ccccc1 + CS(C)=O
101 kPa
Settings | viscosity [mPa·s]
308.15 K, x1 = 0.1408 | 2.065
318.15 K, x1 = 0.4694 | 1.565

Cc1cccc(C)c1O + C[N+](C)(C)CCO.[Cl-]
298.15 K, 101.33 kPa
Settings | viscosity
x1 = 0.7 | 151.2 mPa·s
x1 = 0.8 | 86.79 mPa·s and 61.87 mPa·s and 54.12 mPa·s
x1 = 0.9 | 50.22 mPa·s

O=C(O)CCCC(=O)O + C[N+](C)(C)CCO.[Cl-]
100 kPa, x2 = 0.5
Settings | viscosity [mPa·s]
293.15 K | 2968
298.15 K | 2015
303.15 K | 1408
308.15 K | 1007
313.15 K | 735.8
318.15 K | 547.5
323.15 K | 414.6

ClCCCCCCCl + Cc1cc(C)cc(C)c1
viscosity [mPa·s], 101 kPa
Settings | x1 = 0.1049 | x1 = 0.2004 | x1 = 0.2961 | x1 = 0.4028 | x1 = 0.4994 | x1 = 0.5986 | x1 = 0.7 | x1 = 0.7998 | x1 = 0.9005
308.15 K | 0.645 | 0.714 | 0.798 | 0.896 | 0.995 | 1.106 | 1.221 | 1.352 | 1.488
313.15 K | 0.615 | 0.678 | 0.752 | 0.842 | 0.929 | 1.031 | 1.137 | 1.264 | 1.394
318.15 K | 0.586 | 0.651 | 0.709 | 0.795 | 0.877 | 0.972 | 1.071 | 1.182 | 1.289

CCCCC/C=C\C/C=C\CCCCCCCC(=O)OCC(COC(=O)CCCCCCC/C=C\C/C=C\CCCCC)OC(=O)CCCCCCC/C=C\C/C=C\CCCCC + Cc1ccc(C)cc1
viscosity [mPa·s], 101.3 kPa
Settings | x1 = 0.000712 | x1 = 0.001435 | x1 = 0.00217 | x1 = 0.002914 | x1 = 0.003771 | x1 = 0.004524 | x1 = 0.005322 | x1 = 0.006113
298.15 K | 0.6159 | 0.6268 | 0.638 | 0.6494 | 0.6627 | 0.6742 | 0.6861 | 0.6966
303.15 K | 0.5801 | 0.5903 | 0.6008 | 0.6115 | 0.6238 | 0.6346 | 0.6455 | 0.6549
308.15 K | 0.5474 | 0.557 | 0.5668 | 0.5769 | 0.5885 | 0.5985 | 0.6085 | 0.617
313.15 K | 0.5174 | 0.5265 | 0.5358 | 0.5453 | 0.5561 | 0.5654 | 0.5747 | 0.5824
318.15 K | 0.49 | 0.4986 | 0.5074 | 0.5163 | 0.5265 | 0.5352 | 0.5437 | 0.5507

ClCCCCCCCl + Cc1ccc(C)cc1
viscosity [mPa·s], 101 kPa
Settings | x1 = 0.08955 | x1 = 0.1825 | x1 = 0.2818 | x1 = 0.3684 | x1 = 0.4454 | x1 = 0.5735 | x1 = 0.6793 | x1 = 0.7843 | x1 = 0.8888
308.15 K | 0.586 | 0.645 | 0.722 | 0.802 | 0.878 | 1.027 | 1.154 | 1.307 | 1.45
313.15 K | 0.558 | 0.621 | 0.686 | 0.756 | 0.83 | 0.972 | 1.095 | 1.242 | 1.378
318.15 K | 0.534 | 0.595 | 0.653 | 0.714 | 0.78 | 0.899 | 1.014 | 1.134 | 1.267

C=C(C)C(=O)OC + Cc1ccccc1
303.15 K, 101 kPa
Settings | viscosity [mPa·s]
x1 = 0.1041 | 0.5201
x1 = 0.2049 | 0.5187
x1 = 0.4069 | 0.5163
x1 = 0.5046 | 0.5155
x1 = 0.6068 | 0.5148
x1 = 0.798 | 0.5141
x1 = 0.896 | 0.5141

ClCCCCCCCl + Cc1ccccc1
viscosity [mPa·s], 101 kPa
Settings | x1 = 0.07864 | x1 = 0.1578 | x1 = 0.2467 | x1 = 0.3346 | x1 = 0.4309 | x1 = 0.533 | x1 = 0.6475 | x1 = 0.755 | x1 = 0.8707
308.15 K | 0.536 | 0.604 | 0.676 | 0.764 | 0.868 | 0.978 | 1.121 | 1.267 | 1.44
313.15 K | 0.514 | 0.57 | 0.639 | 0.712 | 0.807 | 0.911 | 1.043 | 1.175 | 1.345
318.15 K | 0.49 | 0.543 | 0.605 | 0.682 | 0.769 | 0.865 | 0.983 | 1.095 | 1.228
